One series deals with test animal (rat). Kind of series: Acute oral LD50. Type of series: in vivo. The following applies: polyethylene glycol 200/triethanolamine 9:1 w/w. The method, then: For some compounds, LD50 data has also been generated, as follows.
Compounds were dissolved in a mixture of polyethylene glycol 200 and triethanolamine (9:1 w/w) and serially diluted with the same solvent system to given concentrations of: 10.0, 4.64, 2.15, 1.00, 0.464, 0.215, 0.10, milligrammes per milliliter (mgml^-1).
As these concentrations represent a known number of milligrammes per milliliter, administration of any solution to the test animal at the rate of 1 milliliter per 1 kilogramme of bodyweight delivers a dose (in mgkg^-1) numerically equivalent to the concentration of that solution.
Thus appropriate doses were a range of four consecutive oral doses from the series of concentration sufficient to cause low group mortality at the lowest dose, and high group mortality at the highest dose. Acute oral LD50 's were then determined by reference to the tables in Horns' paper "Simplified LD50 (or ED50) Calculations", Biometrics, 12, 311-322.

Another series deals with prothrombin time. Kind of series: Anticoagulant activity by measurement of the prothrombin time (3-day ED50, intraperitoneal, modified one-step method of Quick). The class given is in vivo, Wistar-strain male rats. The settings on record: Rattus norvegicus, S100, ip, 72 h, read-out: 3-day ED50. The method, then:
Anticoagulant activity of the compounds of Examples 1 to 11 was determined by measurement of the prothrombin time, which is a measure of blood-clotting properties and is a reliable indicator of efficacy for an anticoagulant rodenticide. The procedure for measurement of prothrombin time is based on Quick et al, Am. J. Med. Sci., 190, 501 to 511, 1935.
Prothrombin times were determined according to the following specific procedures. Test compounds were dissolved in a mixture of polyethylene glycol 200 (i.e. polyethylene glycol of average molar mass 200) and triethanolamine (9:1 w/w) and serially diluted with the same solvent system to give concentrations of; 5.0, 2.5, 1.0, 0.9, 0.8, 0.7, 0.6, 0.5, 0.45, 0.40, 0.35, 0.30, 0.25, 0.2 and 0.1 milligrammes per milliliter (mgml^-1).
As these concentrations represent a known number of milligrammes per milliliter administration of any solution to the test animal at the rate of 1 milliliter per 1 kilogramme of bodyweight (eg. a 250 g rat is administered 0.25 ml) delivers a dose (in mg kg^-1) numerically equivalent to the concentration of that solution. In this instance the terms concentration and dose are synonymous.
Thus, appropriate doses were a range of at least three consecutive doses from the above series of concentrations which it was estimated would induce a range of prothrombin time elevations between 0 to 100% such that a dose-response curve could be constructed for that analogue.
The doses were injected into test animals (200 to 250 g Wistar-strain male rats) by the interperitoneal route. Three days after injection, blood was withdrawn by cardiac puncture whilst the animals were held under "Halothane" anaesthesia.
Three rats were used in each test of a particular compound and three prothrombin time determinations were carried out on each blood sample. Prothrombin times were determined using the modified one-step method of Quick. The percentage extension time of each prothrombin time was determined by assigning 0% extension time to an arbitrary prothrombin resting time of 12 seconds, and 100% extension time to a prothrombin time elevated to an arbitrary 212 seconds. Results were plotted on log-probability graph paper, the best-line fitted, and the prothrombin time ED50 read from the graph.

The mark [1] stands for this setting: prothrombin time ED50, single intraperitoneal injection, male Wistar rats, blood taken three days after injection, 0% = 12 s, 100% = 212 s.

Where two headings read alike, the source gives them in different places.

In the series with test animal (rat), `O=c1oc2ccccc2c(O)c1C1CC(c2ccc(-c3ccccc3)cc2)Cc2ccccc21` (stereo not drawn) [Difenacoum, reference compound] registered a 50% lethal dose (LD50) of 1.80 mg/kg. Further, in the series on prothrombin time, the ED50 was 0.56 mg/kg.
In turn, `O=c1oc2ccccc2c(O)c1C1CC(c2ccc(-c3ccc(OCc4ccc(C(F)(F)F)cc4)cc3)cc2)Cc2ccccc21` (stereo not drawn) [Example 1, 3-{3-[4'-(4-trifluoromethylbenzyloxy)biphenyl-4-yl]-1,2,3,4-tetrahydro-1-naphthyl}-4-hydroxycoumarin] displayed a 50% lethal dose (LD50) in the series on test animal (rat) of 0.32 to 0.4 mg/kg. Further, the 50% effective dose (ED50) in the series on prothrombin time (setting [1]) was 0.4 mg/kg.
For the molecule `N#Cc1ccc(COc2ccc(-c3ccc(C4Cc5ccccc5C(c5c(O)c6ccccc6oc5=O)C4)cc3)cc2)cc1` (stereo not drawn) [Example 2, 3-{3-[4'-(4-cyanobenzyloxy)biphenyl-4-yl]-1,2,3,4-tetrahydro-1-naphthyl}-4-hydroxycoumarin], in the series on prothrombin time (setting [1]), the ED50 turned out to be 1.6 mg/kg.
In turn, `O=c1oc2ccccc2c(O)c1C1CC(c2ccc(-c3ccc(OCc4ccc(Br)cc4)cc3)cc2)Cc2ccccc21` (stereo not drawn) [Example 3, 3-{3-[4'-(4-bromobenzyloxy)biphenyl-4-yl]-1,2,3,4-tetrahydro-1-naphthyl}-4-hydroxycoumarin] returned a 50% lethal dose (LD50) in the series with test animal (rat) of 0.4 to 1.0 mg/kg. The 50% effective dose (ED50) in the series with prothrombin time (setting [1]) was 0.74 mg/kg.
For `O=c1oc2ccccc2c(O)c1C1CC(c2ccc(-c3ccc(-c4ccccc4)cc3)cc2)Cc2ccccc21` (stereo not drawn) [Example 4, 3-[3-(4'-terphenyl-4-yl)-1,2,3,4-tetrahydro-1-naphthyl]-4-hydroxycoumarin], in that order: 1.0 mg/kg and 0.55 mg/kg.
For `O=c1oc2ccccc2c(O)c1C1CC(c2ccc(OCc3ccc(-c4ccccc4)cc3)cc2)Cc2ccccc21` (stereo not drawn) [Example 5, 3-{3-[4-(4-phenylbenzyloxy)phenyl]-1,2,3,4-tetrahydro-1-naphthyl}-4-hydroxycoumarin], in that order: 0.4 to 1.0 mg/kg and 0.4 mg/kg.
Take `O=c1oc2ccccc2c(O)c1C1CC(c2ccc(OCc3ccc(-c4ccc(Br)cc4)cc3)cc2)Cc2ccccc21` (stereo not drawn) [Example 6, 3-{3-[4-(4'-bromobiphenyl-4-ylmethoxy)phenyl]-1,2,3,4-tetrahydro-1-naphthyl}-4-hydroxycoumarin]: the median effective dose (ED50) in the series on prothrombin time (setting [1]) was determined as 0.72 mg/kg.
Same read-out and setting: under `O=c1oc2ccccc2c(O)c1C1CC(c2ccc(Oc3ccc(-c4ccc(Cl)cc4)cc3)cc2)Cc2ccccc21` (stereo not drawn) [Example 7, 3-{3-[4-(4'-chlorobiphenyl-4-yloxy)phenyl]-1,2,3,4-tetrahydro-1-naphthyl}-4-hydroxycoumarin] stands 0.36 mg/kg; under `O=c1oc2ccccc2c(O)c1C1CC(c2ccc(Cc3ccc(-c4ccc(Br)cc4)cc3)cc2)Cc2ccccc21` (stereo not drawn) [Example 8, 3-{3-[4-(4'-bromobiphenyl-4-ylmethyl)phenyl]-1,2,3,4-tetrahydro-1-naphthyl}-4-hydroxycoumarin], 0.37 mg/kg.
On the same count and under the same terms, in the case of `O=c1oc2ccccc2c(O)c1C1CC(c2ccc(OCc3ccc(-c4ccc(-c5ccccc5)cc4)cc3)cc2)Cc2ccccc21` (stereo not drawn) [Example 9, 3-{3-[4-(4-biphenyl-4-ylbenzyloxy)phenyl]-1,2,3,4-tetrahydro-1-naphthyl}-4-hydroxycoumarin] it was 0.49 mg/kg; in that of `O=c1oc2ccccc2c(O)c1C1CC(c2ccc(Cc3ccc(-c4ccccc4)cc3)cc2)Cc2ccccc21` (stereo not drawn) [Example 10, 3-{3-[4-(biphenyl-4-ylmethyl)phenyl]-1,2,3,4-tetrahydro-1-naphthyl}-4-hydroxycoumarin], 0.52 mg/kg; in that of `O=c1oc2ccccc2c(O)c1C1CC(c2ccc(Oc3ccc(-c4ccccc4)cc3)cc2)Cc2ccccc21` (stereo not drawn) [Example 11, 3-{3-[4-(biphenyl-4-yloxy)phenyl]-1,2,3,4-tetrahydro-1-naphthyl}-4-hydroxycoumarin], 0.55 mg/kg.
The same measure, in the same setting: under `CC(=O)CC(c1ccccc1)c1c(O)c2ccccc2oc1=O` (stereo not drawn) [Warfarin, 3-(α-acetonylbenzyl)-4-hydroxycoumarin, reference compound] stands 5.2 mg/kg.

As a reminder, the LD50 is the dose at which mortality reaches 50%. The term ED50 denotes the midpoint of the dose-response relation.

For the origin of these results see patent US4748185A, “4-hydroxycoumarin derivatives” (priority 1985, dated 1988).
